Key:
H+/K+-ATPase = target: T1, H+/K+-ATPase (Sus scrofa, UniProt P19156); test: Proton pump inhibitory action: activity of inhibiting H+/K+-ATPase (at pH 1); assay type: biochemical; details: pig gastric mucosa enzyme sample; test compounds pretreated in hydrochloric acid solution pH 1 (50% DMSO) for 15 minutes; read-out: Proton pump inhibitory action [IC50 (μmol/L)]
T1 construct: The mucous membrane layer was homogenized in Tris-HCl buffer; from tissue; host or cells: pig stomach body, mucous membrane layer, membrane fraction from a sucrose interface
T1 sequence (P19156 2-1034 limits assumed): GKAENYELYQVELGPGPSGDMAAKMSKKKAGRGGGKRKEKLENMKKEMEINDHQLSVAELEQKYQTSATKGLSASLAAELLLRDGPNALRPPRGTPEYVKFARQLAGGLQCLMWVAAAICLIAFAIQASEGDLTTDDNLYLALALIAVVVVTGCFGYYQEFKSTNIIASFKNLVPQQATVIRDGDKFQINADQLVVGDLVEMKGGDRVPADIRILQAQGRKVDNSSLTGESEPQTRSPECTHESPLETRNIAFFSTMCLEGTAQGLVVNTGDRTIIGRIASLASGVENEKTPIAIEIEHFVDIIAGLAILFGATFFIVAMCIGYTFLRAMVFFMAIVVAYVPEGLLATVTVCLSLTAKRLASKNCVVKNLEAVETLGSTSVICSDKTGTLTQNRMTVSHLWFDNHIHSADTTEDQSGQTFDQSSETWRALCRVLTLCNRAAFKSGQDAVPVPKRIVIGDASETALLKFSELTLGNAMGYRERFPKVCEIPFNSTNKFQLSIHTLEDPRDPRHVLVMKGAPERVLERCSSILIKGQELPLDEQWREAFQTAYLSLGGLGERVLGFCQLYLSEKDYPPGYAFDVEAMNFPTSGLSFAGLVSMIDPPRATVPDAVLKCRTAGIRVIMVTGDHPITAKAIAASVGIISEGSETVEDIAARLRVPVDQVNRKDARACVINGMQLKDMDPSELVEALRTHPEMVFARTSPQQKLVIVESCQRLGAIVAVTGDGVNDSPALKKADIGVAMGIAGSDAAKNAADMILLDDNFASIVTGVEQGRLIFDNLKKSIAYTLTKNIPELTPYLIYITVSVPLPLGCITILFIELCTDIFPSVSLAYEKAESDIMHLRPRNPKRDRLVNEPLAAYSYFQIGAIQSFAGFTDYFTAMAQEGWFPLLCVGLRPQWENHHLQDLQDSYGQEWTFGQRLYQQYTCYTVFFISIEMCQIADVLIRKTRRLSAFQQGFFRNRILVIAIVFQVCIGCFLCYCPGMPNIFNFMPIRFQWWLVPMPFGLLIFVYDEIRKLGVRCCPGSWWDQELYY
T1 sequence (P18434 whole entry partner): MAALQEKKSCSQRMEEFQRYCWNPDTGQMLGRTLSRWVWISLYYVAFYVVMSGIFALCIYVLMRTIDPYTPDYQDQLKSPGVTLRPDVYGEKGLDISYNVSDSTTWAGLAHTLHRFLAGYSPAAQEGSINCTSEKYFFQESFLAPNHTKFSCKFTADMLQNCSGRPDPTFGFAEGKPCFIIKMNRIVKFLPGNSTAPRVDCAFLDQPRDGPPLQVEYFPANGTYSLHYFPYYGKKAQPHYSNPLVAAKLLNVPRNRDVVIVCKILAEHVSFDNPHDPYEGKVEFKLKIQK
From the text: (Proton Pump Inhibitory Action)
(1) Preparation of Enzyme Sample (H^+/K^+-ATPase)
The stomach body removed from a pig, which had been stored in a frozen state, was separated into a muscle layer and a mucous membrane layer. The mucous membrane layer was homogenized in Tris-HCl buffer (20 mmol/L, pH 7.4) having a volume 5 times that of the layer and containing sucrose (0.25 mol/L) and EGTA (1 mmol/L) (hereinafter the mixture is referred to as Tris-HCl buffer) in a mixer. The homogenate was subjected to centrifugation (9,000×g, 30 minutes). The supernatant was softly placed on 8 mL Tris-HCl buffer (20 mmol/L, pH 7.4) containing 30% sucrose and 1 mmol/L EGTA. The mixture was subjected to ultracentrifugation at 100,000×g for 60 minutes. The interface fraction obtained through centrifugation was subjected to centrifugation (113,000×g, 60 minutes) twice. Pellet was suspended in Tris-HCl buffer, and the suspension was homogenized at low speed. The resultant homogenate served as an enzyme sample of interest and was stored at −80° C. The protein content of the sample was quantitated through use of a BCA protein assay reagent in accordance with a method described by Smith et al. (Anal. Biochem., 150, 76-85 (1985)). All these steps were performed under cooling with an ice bath.
(2) Activity of inhibiting H^+/K^+-ATPase (at pH 1)
Activity of inhibiting H^+/K^+-ATPase was measured in accordance with a method described in Biochem. Biophys. Res. Commun., 40, 880-886 (1970). Specifically, ATP was employed as a substrate, and inorganic phosphate, which is a resultant degradation product, was quantitated. In consideration of the solubility of test compounds, the test compounds were preliminarily treated with a hydrochloric acid solution (containing 50% DMSO, 1×10^−1 mol/L, pH 1). Each of the test compounds having different concentrations was added to the hydrochloric acid solution to thereby yield a 1,000—fold dilution, and thereafter, the diluted compound was allowed to stand for 15 minutes at room temperature. After these preliminary remedies, a 10 μL solution that had undergone the above preliminary remedies were added to 840 μL Tris-acetate buffer (40 mmol/L, pH 7.5, containing 2 mmol/L MgCl2, may be referred to as TE buffer) containing or not containing 20 mmol/L KCl. Subsequently, a 100 μL enzyme solution (5 μg protein) diluted with the TE buffer was added. Incubation was performed for 30 minutes at 37° C. Thereafter, a 50 μL ATP solution (40 mmol/L) which was dissolved in TE buffer not containing KCl was added to initiate enzyme reaction (total volume: 1 mL, ATP final concentration: 2 mmol/L). Incubation was performed for 30 minutes at 37° C. Subsequently, ice-cold 12% trichloroacetic acid (2 mL) was added, to thereby stop the enzyme reaction. A molybdenum reagent (1 mL, 3.75% ammonium molybdate/1.5 mol/L sulfuric acid) and butyl acetate (5 mL) were added, followed by mixing under vigorous shaking for 5 minutes. The absorption of the butyl acetate layer was measured at 310 nm. A standard curve was determined on the basis of absorption obtained through the similar procedure by use of KH2PO4 at different concentrations dissolved in 8% TCA solution, and inorganic phosphate content was calculated. Samples to be measured were prepared in duplicate. The measurements were averaged, and residual activity was obtained from the difference between the inorganic phosphate content as determined in a sample containing KCl and that as determined in a sample not containing KCl. Percentage inhibition activity was calculated with respect to the activity obtained from a control sample (DMSO), which was considered 100%. As the inhibitory potency of each test compound, IC50 values were computed and shown. All the test compounds were dissolved in dimethyl sulfoxide immediately before use.

[1] = test system: gastric acid secreted under stimulation with histamine; test: Gastric acid secretion inhibition action, histamine-stimulated, acute Fistula method; assay type: in vivo, Sprague-Dawley (SD) rats; details: SD rats, administered in the duodenum, histamine 8 mg/kg/h, total acid discharge at 3, 4 and 5 hours, Probit method; for ED50: Rattus norvegicus
Description: (Gastric Acid Secretion Inhibition Action)
(1) Test Animals Employed were Sprague-Dawley (SD) Rats (7 Weeks Old, Male) Purchased from Charles River Japan, Inc. Before the Test, the Rats Were Fed for 5 Days or More.
Each test drug was suspended in, or dissolved in, 0.5% sodium carboxymethylcellulose solution, whereby a suspension or solution was prepared so as to attain 2.5 mL/kg.
(2) Measurement of Gastric Acid Secretion
The amount of gastric acid secreted under stimulation with histamine was measured on the rats fasted for 18 hours by use of the acute Fistula method as described by Hiramatsu et al. (Dig. Dis. Sci.,39, 689-697(1994)). Briefly, each rat was etherized lightly, and then a winged tubular needle filled with 3.8% citric acid solution was indwelled in the tail vein of the rat. The abdomen of the rat was opened, and the pyloric part of the stomach was ligated. Subsequently, a small hole was made in the duodenum, and the abdomen of the rat was closed with a feeding tube filled with saline indwelled. The inside of the stomach was washed with saline, a polyethylene-made Fistula tube (inner diameter: 4 mm) was set in the anterior stomach, and the cut portion of the anterior stomach was ligated and secured. The stomach and the duodenum were returned to the abdominal cavity, with the Fistula tube and the feeding tube exposed outside. The rat was placed in a Ballman cage II. Histamine was continuously administered through the winged injection needle which had been indwelled in the tail vein in advance (8 mg/kg/h, 1.38 mL/h). 15 Minutes thereafter, gastric juice of the rat was collected. Subsequently, collection of gastric juice was performed every one hour. Each time, the amount of the collected gastric juice was recorded, followed by titration with NaOH (0.1 mol/L) up to the end point pH 7.0. From the volume consumed for titration, acidity was calculated. The acid discharge amount was calculated as a product of the amount of the gastric juice and the acidity. Before starting the test, the rats were grouped so that the intra-group total amount of the gastric juice samples initially collected was the same between groups. Thereafter, each test drug was administered (2.5 mL/kg) in the duodenum through a feeding tube which had been attached to the duodenum in advance. To each rat of a control group, 0.5% Na-CMC solution was administered.
(3) Analysis of the Results
The data as obtained above are shown by way of mean±standard error. Total amount of acid discharge was obtained through summation of the amounts of acid discharge at three points in time; i.e., 3, 4 and 5 hours after initial collection of gastric juice. Percent inhibition of each group was computed from the total acid discharge amount of the control group and that of each group. On the basis of the percent inhibition calculated for each group, 50% effective dose (ED50) was computed by use of the Probit method.

Row | Structure (SMILES) | IC50 (H+/K+-ATPase) [µmol/L] | ED50 [1] [mg/kg] | Gastric-acid secretion inhibition action [ED50 (mg/kg)] [1] [mg/kg]
1 | COc1c(OCCOCC(F)(F)F)ccnc1C[S+]([O-])c1nc2ccccc2[nH]1 (single isomer, unassigned; (+)) [Example 3(2), (+)-2-{3-methoxy-4-[2-(2,2,2-trifluoroethoxy)ethoxy]pyridin-2-yl-methylsulfinyl}-1H-benzimidazole] | 4.05 | 2.2 | –
2 | COc1c(OCCCC(F)(F)F)ccnc1C[S+]([O-])c1nc2ccccc2[nH]1 (single isomer, unassigned; (-)) [Example 6(1), (−)-2-[3-methoxy-4-(4,4,4-trifluorobutoxy)pyridin-2-yl-methanesulfinyl]-1H-benzimidazole] | 2.5 | – | 1.4
3 | [O-][S+](Cc1cc(OCCCC(F)(F)F)ccn1)c1nc2ccccc2[nH]1 (single isomer, unassigned; (-)) [Example 10(2), (−)-2-[4-(4,4,4-trifluorobutoxy)pyridin-2-yl-methanesulfinyl]-1H-benzimidazole] | 3.03 | 0.97 | –
4 | COc1c(OCCCC(F)(F)F)ccnc1C[S+]([O-])c1nc2ccccc2[nH]1 (stereo not drawn) [Example 1(2), 2-[3-methoxy-4-(4,4,4-trifluorobutoxy)pyridin-2-yl-methylsulfinyl]-1H-benzimidazole] | 4.16 | 1.3 | –
5 | [O-][S+](Cc1cc(OCCCC(F)(F)F)ccn1)c1nc2ccccc2[nH]1 (stereo not drawn) [Example 9(3), 2-[4-(4,4,4-trifluorobutoxy)pyridin-2-yl-methanesulfinyl]-1H-benzimidazole] | 3.56 | 0.32 | –
6 | Cc1c(OCC(F)(F)F)ccnc1C[S+]([O-])c1nc2ccccc2[nH]1 (stereo not drawn) [lansoprazole, reference compound] | 1.61 | 1.1 | –
7 | COc1ccnc(C[S+]([O-])c2nc3ccc(OC(F)F)cc3[nH]2)c1OC (stereo not drawn) [pantoprazole, reference compound] | 5.46 | 0.34 | –
8 | COCCCOc1ccnc(C[S+]([O-])c2nc3ccccc3[nH]2)c1C (stereo not drawn) [rabeprazole, reference compound] | 1.61 | 2.5 | –

Now from value to compound, other results behind:

Row | IC50 (H+/K+-ATPase) [µmol/L] | Structure (SMILES) | ED50 [1] [mg/kg] | Gastric-acid secretion inhibition action [ED50 (mg/kg)] [1] [mg/kg]
9 | 7.37 | [O-][S+](Cc1cc(OCCOCC(F)(F)F)ccn1)c1nc2ccccc2[nH]1 (single isomer, unassigned; (-)) [Example 13(3), (−)-2-{4-[2-(2,2,2-trifluoroethoxy)ethoxy]pyridin-2-yl-methanesulfinyl}-1H-benzimidazole] | 0.59 | –
10 | 3.37 | COc1c(OCCOCC(F)(F)F)ccnc1C[S+]([O-])c1nc2ccccc2[nH]1 (stereo not drawn) [Example 2(2), 2-{3-methoxy-4-[2-(2,2,2-trifluoroethoxy)ethoxy]pyridin-2-yl-methylsulfinyl}-1H-benzimidazole] | 1.9 | –
11 | 2.06 | COc1ccc2nc([S@@+]([O-])Cc3ncc(C)c(OC)c3C)[nH]c2c1 [esomeprazole, reference compound] | 2.9 | –
12 | 1.01 | COc1ccc2[nH]c([S+]([O-])Cc3ncc(C)c(OC)c3C)nc2c1 (stereo not drawn) [omeprazole, reference compound] | 3.6 | –

From patent publication US6884810B2, “Benzimidazole derivatives” (Zeria Pharmaceutical Co., Ltd., priority 2001, dated 2005)
